The record followed here is patent US20140228349A1, “5,7-SUBSTITUTED-IMIDAZO[1,2-C]PYRIMIDINES” (Array BioPharma Inc., priority 2011, published 2014).

Type in all cases: biochemical
One assay concerns the target T1, JAK2 (Homo sapiens, UniProt O60674).
T1 construct: purchased Invitrogen Corporation, Carlsbad, Calif; IVGN PV4288
Put plainly: JAK2 Inhibition Assay (Omnia kinase fluorescence peptide substrate). The note with it: averaged IC50 ranges; 25 μM (Km app) or 1 mM ATP, 5 nM JAK2.

A further assay has as its target T2, Human Tyk2 kinase domain (Homo sapiens, UniProt P29597).
T2 construct: comprising amino acids 886 to 1187; His10 (10 histidine residues) (C, cleaved yes); made in house
T2 sequence (P29597 886-1187): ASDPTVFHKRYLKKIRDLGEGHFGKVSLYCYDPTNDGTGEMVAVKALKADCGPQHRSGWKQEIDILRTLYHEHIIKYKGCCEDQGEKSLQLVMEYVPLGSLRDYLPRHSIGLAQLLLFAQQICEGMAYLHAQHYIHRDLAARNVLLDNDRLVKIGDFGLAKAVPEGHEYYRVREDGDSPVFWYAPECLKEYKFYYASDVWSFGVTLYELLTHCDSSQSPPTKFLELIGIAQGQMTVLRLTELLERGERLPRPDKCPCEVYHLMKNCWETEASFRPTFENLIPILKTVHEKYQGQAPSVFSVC
Put plainly: Tyk2 Inhibition Assay (Omnia kinase fluorescence peptide substrate). The settings on record: averaged IC50 ranges; 10 μM (Km app) or 1 mM ATP, 2 nM Tyk2. The essentials: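 Phosphorylation of 8 μM Omnia Y12 peptide followed kinetically by Sox fluorescence, ex 360/em 485 nm, every 50 s for 45 min. Enzyme: 2 nM Tyk2 kinase domain (aa 886–1187, His tag removed); ATP at 10 μM (Km app) or 1 mM; buffer HEPES pH 7.4 with MgCl2, Triton X-100, DTT. 10-point curves up to 10 μM, IC50 from 4-parameter logistic fit.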

In the next assay the target is T3, JAK1 (Homo sapiens, UniProt P23458).
T3 construct: purchased Invitrogen Corporation, Carlsbad, Calif; IVGN PV4775
T3 sequence (P23458 whole entry): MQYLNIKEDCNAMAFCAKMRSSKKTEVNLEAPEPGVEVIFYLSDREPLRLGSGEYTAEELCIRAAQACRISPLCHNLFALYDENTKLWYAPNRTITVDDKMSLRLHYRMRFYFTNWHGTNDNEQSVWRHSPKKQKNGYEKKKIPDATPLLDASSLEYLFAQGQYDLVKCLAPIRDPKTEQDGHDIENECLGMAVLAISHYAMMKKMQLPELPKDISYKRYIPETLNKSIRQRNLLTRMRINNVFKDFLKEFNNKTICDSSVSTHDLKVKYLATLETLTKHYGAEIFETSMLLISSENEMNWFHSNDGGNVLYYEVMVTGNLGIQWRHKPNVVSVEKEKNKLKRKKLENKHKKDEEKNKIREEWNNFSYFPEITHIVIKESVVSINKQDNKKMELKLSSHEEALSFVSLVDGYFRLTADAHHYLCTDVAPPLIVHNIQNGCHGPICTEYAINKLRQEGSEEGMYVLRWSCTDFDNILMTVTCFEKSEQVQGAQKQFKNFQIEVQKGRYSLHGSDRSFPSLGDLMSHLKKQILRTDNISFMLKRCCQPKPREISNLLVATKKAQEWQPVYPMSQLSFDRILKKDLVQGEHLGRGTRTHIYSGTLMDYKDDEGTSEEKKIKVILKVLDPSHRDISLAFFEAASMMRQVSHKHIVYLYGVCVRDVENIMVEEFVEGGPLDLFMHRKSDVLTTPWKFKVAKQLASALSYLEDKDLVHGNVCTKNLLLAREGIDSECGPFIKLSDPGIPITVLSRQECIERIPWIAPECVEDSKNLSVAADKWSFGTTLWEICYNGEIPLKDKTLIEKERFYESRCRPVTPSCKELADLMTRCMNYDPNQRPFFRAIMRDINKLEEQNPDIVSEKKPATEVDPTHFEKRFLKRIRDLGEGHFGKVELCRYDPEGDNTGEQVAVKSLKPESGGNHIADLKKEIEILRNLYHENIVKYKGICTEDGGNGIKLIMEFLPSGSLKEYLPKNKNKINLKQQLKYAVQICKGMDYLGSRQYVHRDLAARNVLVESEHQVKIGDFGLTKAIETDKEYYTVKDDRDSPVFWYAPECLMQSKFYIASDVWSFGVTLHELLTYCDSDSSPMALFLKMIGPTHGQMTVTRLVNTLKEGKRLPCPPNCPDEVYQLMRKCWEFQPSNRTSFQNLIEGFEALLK
The assay is described as follows: JAK1 Inhibition Assay (Omnia kinase fluorescence peptide substrate). The note with it: averaged IC50 ranges; 40 μM (Km app) or 1 mM ATP, 15 nM JAK1. In outline: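 15 nM JAK1, 8 μM Omnia Y12 peptide, 40 μM (Km app) or 1 mM ATP; 25 mM HEPES pH 7.4, 10 mM MgCl2, 2% DMSO. Fluorescence (ex 360/em 485 nm) read every 50 s over 45 min. IC50 by 4-parameter fit of percent of control, top dose 10 μM.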

For a further assay, the target named is T4, JAK3 (Homo sapiens, UniProt P52333).
T4 construct: purchased Invitrogen Corporation, Carlsbad, Calif; IVGN PV4080
T4 sequence (P52333 1-1124): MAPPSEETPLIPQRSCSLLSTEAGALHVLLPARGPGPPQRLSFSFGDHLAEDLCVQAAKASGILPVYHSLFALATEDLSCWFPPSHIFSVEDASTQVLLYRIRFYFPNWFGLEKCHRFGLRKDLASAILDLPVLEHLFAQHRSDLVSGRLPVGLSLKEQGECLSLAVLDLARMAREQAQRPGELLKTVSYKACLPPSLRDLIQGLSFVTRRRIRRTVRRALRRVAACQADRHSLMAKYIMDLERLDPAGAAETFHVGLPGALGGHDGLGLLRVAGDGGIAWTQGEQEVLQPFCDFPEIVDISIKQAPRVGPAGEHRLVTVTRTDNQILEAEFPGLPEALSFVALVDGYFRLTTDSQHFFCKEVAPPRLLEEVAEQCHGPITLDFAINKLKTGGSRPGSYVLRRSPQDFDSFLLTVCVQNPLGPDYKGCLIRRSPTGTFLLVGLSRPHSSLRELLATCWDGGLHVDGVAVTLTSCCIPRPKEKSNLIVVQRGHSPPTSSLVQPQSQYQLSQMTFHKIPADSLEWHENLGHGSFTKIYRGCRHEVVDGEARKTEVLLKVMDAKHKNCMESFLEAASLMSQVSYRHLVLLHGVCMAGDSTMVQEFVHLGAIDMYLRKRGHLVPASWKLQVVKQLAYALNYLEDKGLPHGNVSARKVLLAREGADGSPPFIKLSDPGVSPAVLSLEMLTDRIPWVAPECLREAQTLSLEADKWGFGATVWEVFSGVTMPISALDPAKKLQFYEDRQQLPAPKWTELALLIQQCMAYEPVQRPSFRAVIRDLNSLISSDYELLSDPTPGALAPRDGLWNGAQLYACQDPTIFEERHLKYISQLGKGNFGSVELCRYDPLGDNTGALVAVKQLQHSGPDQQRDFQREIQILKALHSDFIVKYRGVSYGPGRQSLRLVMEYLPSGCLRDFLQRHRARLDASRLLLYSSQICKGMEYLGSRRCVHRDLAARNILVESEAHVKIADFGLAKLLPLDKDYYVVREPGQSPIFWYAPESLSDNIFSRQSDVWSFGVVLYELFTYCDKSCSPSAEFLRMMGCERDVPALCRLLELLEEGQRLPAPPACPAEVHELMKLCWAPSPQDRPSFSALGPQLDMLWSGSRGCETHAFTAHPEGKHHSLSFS
Put plainly: JAK3 Inhibition Assay (Omnia kinase fluorescence peptide substrate). The note with it: averaged IC50 ranges; 10 μM (Km app) or 1 mM ATP, 2.5 nM JAK3. In outline: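 IC50 is the concentration giving 50 percent of control on a 4-parameter logistic fit of 10-point, 3-fold dilutions from a 10 μM top dose, at 2% final DMSO. Kinetic Sox fluorescence (360/485 nm) was monitored every 50 s for 45 min. Mix: JAK3 2.5 nM, Omnia Y7 peptide 10 μM, ATP 10 μM (Km app) or 1 mM, in HEPES pH 7.4 buffer with MgCl2, Triton X-100 and DTT.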

pIC50: −log10 of the molar value.

T1 sequence (O60674 whole entry): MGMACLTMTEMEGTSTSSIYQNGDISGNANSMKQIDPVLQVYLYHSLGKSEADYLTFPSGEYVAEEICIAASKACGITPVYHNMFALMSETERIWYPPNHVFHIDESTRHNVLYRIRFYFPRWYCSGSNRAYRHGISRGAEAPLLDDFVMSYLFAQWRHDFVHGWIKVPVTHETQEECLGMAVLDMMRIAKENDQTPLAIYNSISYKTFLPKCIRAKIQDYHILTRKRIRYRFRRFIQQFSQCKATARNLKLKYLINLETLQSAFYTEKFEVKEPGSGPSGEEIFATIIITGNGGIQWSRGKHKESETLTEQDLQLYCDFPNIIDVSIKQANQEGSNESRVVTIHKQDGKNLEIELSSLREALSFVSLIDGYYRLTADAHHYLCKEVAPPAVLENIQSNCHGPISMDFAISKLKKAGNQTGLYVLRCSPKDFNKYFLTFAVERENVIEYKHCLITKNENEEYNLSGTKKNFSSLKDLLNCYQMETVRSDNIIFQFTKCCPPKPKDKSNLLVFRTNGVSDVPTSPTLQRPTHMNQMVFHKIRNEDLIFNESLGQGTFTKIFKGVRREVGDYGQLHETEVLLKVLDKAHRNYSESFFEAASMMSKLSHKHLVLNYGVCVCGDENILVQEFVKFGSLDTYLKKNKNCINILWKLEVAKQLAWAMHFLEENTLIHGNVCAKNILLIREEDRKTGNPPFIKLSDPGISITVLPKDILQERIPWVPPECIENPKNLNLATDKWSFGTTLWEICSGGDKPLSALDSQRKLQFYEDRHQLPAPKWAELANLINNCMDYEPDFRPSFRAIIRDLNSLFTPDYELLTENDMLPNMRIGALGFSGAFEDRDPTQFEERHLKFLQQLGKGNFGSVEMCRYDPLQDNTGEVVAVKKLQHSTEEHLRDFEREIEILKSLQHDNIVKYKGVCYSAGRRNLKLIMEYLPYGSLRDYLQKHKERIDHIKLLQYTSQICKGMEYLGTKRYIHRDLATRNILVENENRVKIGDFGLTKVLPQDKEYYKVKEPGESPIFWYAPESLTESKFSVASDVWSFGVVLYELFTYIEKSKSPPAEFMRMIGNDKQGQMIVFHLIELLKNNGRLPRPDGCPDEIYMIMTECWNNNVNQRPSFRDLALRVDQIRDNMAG

As to `COCCC(C1CCCC1)n1cc(-c2nc(-c3cnn(C)c3)cc3nccn23)cn1` (stereo not drawn) [Example 70, 5-(1-(1-cyclopentyl-3-methoxypropyl)-1H-pyrazol-4-yl)-7-(1-methyl-1H-pyrazol-4-yl)imidazo[1,2-c]pyrimidine], the negative-log IC50 (pIC50) was less than 6.00 on JAK2, 6.00 to 7.00 on Human Tyk2 kinase domain, less than 6.00 on JAK1 and less than 6.00 at JAK3.

For `Cn1cc(-c2cc3nccn3c(-c3cnn(C4(CCO)CN(S(=O)(=O)C(F)(F)F)C4)c3)n2)cn1` [Example 3, 2-(3-(4-(7-(1-methyl-1H-pyrazol-4-yl)imidazo[1,2-c]pyrimidin-5-yl)-1H-pyrazol-1-yl)-1-((trifluoromethyl)sulfonyl)azetidin-3-yl)ethanol], the negative logarithm of the IC50 (pIC50) against JAK2 is 6.00 to 7.00; on Human Tyk2 kinase domain, 7.00 to 8.00; against JAK1 it was 6.00 to 7.00; at JAK3, 6.00 to 7.00.

For the compound `CCCCC1(n2cc(-c3nc(-c4cnn(C)c4)cc4nccn34)cn2)CN(S(=O)(=O)C(F)(F)F)C1` [Example 83, 5-(1-(3-butyl-1-((trifluoromethyl)sulfonyl)azetidin-3-yl)-1H-pyrazol-4-yl)-7-(1-methyl-1H-pyrazol-4-yl)imidazo[1,2-c]pyrimidine], the pIC50 was 6.00 to 7.00 against JAK2, 7.00 to 8.00 on Human Tyk2 kinase domain, 6.00 to 7.00 on JAK1 and 6.00 to 7.00 against JAK3.

Consider `Cn1cc(-c2cc3nccn3c(-c3cnn(C(CCCF)C4CC4)c3)n2)cn1` (stereo not drawn) [Example 30, 5-(1-(1-cyclopropyl-4-fluorobutyl)-1H-pyrazol-4-yl)-7-(1-methyl-1H-pyrazol-4-yl)imidazo[1,2-c]pyrimidine], for which the pIC50 against JAK2 was 7.00 to 8.00; against Human Tyk2 kinase domain it was 7.00 to 8.00; against JAK1, 6.00 to 7.00; against JAK3 it was 6.00 to 7.00.

As for `Cn1cc(-c2cc3nccn3c(-c3cnn(C4(CCF)CN(S(C)(=O)=O)C4)c3)n2)cn1` [Example 64, 5-(1-(3-(2-fluoroethyl)-1-(methylsulfonyl)azetidin-3-yl)-1H-pyrazol-4-yl)-7-(1-methyl-1H-pyrazol-4-yl)imidazo[1,2-c]pyrimidine], the pIC50 was 7.00 to 8.00 against JAK2, 7.00 to 8.00 against Human Tyk2 kinase domain, 6.00 to 7.00 on JAK1 and 6.00 to 7.00 at JAK3.

`CCOCCC1(n2cc(-c3nc(-c4cnn(C)c4)cc4nccn34)cn2)CN(S(=O)(=O)C(F)(F)F)C1` [Example 33, 5-(1-(3-(2-ethoxyethyl)-1-((trifluoromethyl)sulfonyl)azetidin-3-yl)-1H-pyrazol-4-yl)-7-(1-methyl-1H-pyrazol-4-yl)imidazo[1,2-c]pyrimidine]: the negative-log IC50 (pIC50) against JAK2 is 7.00 to 8.00; against Human Tyk2 kinase domain, 7.00 to 8.00; on JAK1, 7.00 to 8.00; against JAK3 it was 6.00 to 7.00.

For `CC#CCC(C1CC1)n1cc(-c2nc(-c3cnn(C)c3)cc3nccn23)cn1` (stereo not drawn) [Example 45, 5-(1-(1-cyclopropylpent-3-yn-1-yl)-1H-pyrazol-4-yl)-7-(1-methyl-1H-pyrazol-4-yl)imidazo[1,2-c]pyrimidine], the negative logarithm of the IC50 (pIC50) against JAK2 was 6.00 to 7.00; on Human Tyk2 kinase domain it was 6.00 to 7.00; against JAK1, less than 6.00; on JAK3, less than 6.00.

Consider `CCCC(C1CC1)n1cc(-c2nc(-c3cnn(C)c3)cc3nccn23)cn1` (stereo not drawn) [Example 15, 5-(1-(1-Cyclopropylbutyl)-1H-pyrazol-4-yl)-7-(1-methyl-1H-pyrazol-4-yl)imidazo[1,2-c]pyrimidine], for which the pIC50 at JAK2 was 7.00 to 8.00; against Human Tyk2 kinase domain it was 7.00 to 8.00; at JAK1 it was 6.00 to 7.00; on JAK3, 6.00 to 7.00.

With `CC[C@@H](CCF)n1cc(-c2nc(-c3cnn(C)c3)cc3nccn23)cn1` [Example 43, (S)-5-(1-(1-fluoropentan-3-yl)-1H-pyrazol-4-yl)-7-(1-methyl-1H-pyrazol-4-yl)imidazo[1,2-c]pyrimidine], the negative-log IC50 (pIC50) against JAK2 is 7.00 to 8.00; against Human Tyk2 kinase domain it was 7.00 to 8.00; at JAK1, 6.00 to 7.00; on JAK3, 6.00 to 7.00.

Regarding `Cn1cc(-c2cc3nccn3c(-c3cnn(C4(CCF)CN(S(=O)(=O)CC(F)(F)F)C4)c3)n2)cn1` [Example 86, 5-(1-(3-(2-fluoroethyl)-1-((2,2,2-trifluoroethyl)sulfonyl)azetidin-3-yl)-1H-pyrazol-4-yl)-7-(1-methyl-1H-pyrazol-4-yl)imidazo[1,2-c]pyrimidine], the negative-log IC50 (pIC50) against JAK2 was 6.00 to 7.00; against Human Tyk2 kinase domain, 6.00 to 7.00; at JAK1 it was less than 6.00; against JAK3 it was less than 6.00.

For `C[C@H](O)C[C@@H](C1CC1)n1cc(-c2nc(-c3cnn(C)c3)cc3nccn23)cn1` [Example 41, (2S,4S)-4-cyclopropyl-4-(4-(7-(1-methyl-1H-pyrazol-4-yl)imidazo[1,2-c]pyrimidin-5-yl)-1H-pyrazol-1-yl)butan-2-ol], the pIC50 was 6.00 to 7.00 against JAK2, 6.00 to 7.00 on Human Tyk2 kinase domain, less than 6.00 against JAK1 and less than 6.00 on JAK3.

For the compound `COC(=O)CC(c1ccc(F)cc1)n1cc(-c2nc(-c3cnn(C)c3)cc3nccn23)cn1` (stereo not drawn) [Example 80, methyl 3-(4-fluorophenyl)-3-(4-(7-(1-methyl-1H-pyrazol-4-yl)imidazo[1,2-c]pyrimidin-5-yl)-1H-pyrazol-1-yl)propanoate], the negative-log IC50 (pIC50) on JAK2 was 6.00 to 7.00; against Human Tyk2 kinase domain, 6.00 to 7.00; against JAK1 it was less than 6.00; against JAK3, less than 6.00.

Regarding `Cc1cc(-c2cc3nccn3c(-c3cnn(C4(CCF)CN(S(=O)(=O)C(F)(F)F)C4)c3)n2)[nH]n1` [Example 58, 5-(1-(3-(2-fluoroethyl)-1-((trifluoromethyl)sulfonyl)azetidin-3-yl)-1H-pyrazol-4-yl)-7-(3-methyl-1H-pyrazol-5-yl)imidazo[1,2-c]pyrimidine], the negative logarithm of the IC50 (pIC50) is 7.00 to 8.00 against JAK2, greater than 8.00 at Human Tyk2 kinase domain, 6.00 to 7.00 at JAK1 and 6.00 to 7.00 at JAK3.

On to `C/C=C/[C@H](C1CC1)n1cc(-c2nc(-c3cnn(C)c3)cc3nccn23)cn1` [Example 38, (S,E)-5-(1-(1-cyclopropylbut-2-en-1-yl)-1H-pyrazol-4-yl)-7-(1-methyl-1H-pyrazol-4-yl)imidazo[1,2-c]pyrimidine], for which the pIC50 on JAK2 was 6.00 to 7.00; on Human Tyk2 kinase domain, 6.00 to 7.00; on JAK1 it was less than 6.00; on JAK3, less than 6.00.

Regarding `CC#CCCn1cc(-c2nc(-c3cnn(C)c3)cc3nccn23)cn1` [Example 7, 7-(1-Methyl-1H-pyrazol-4-yl)-5-(1-(pent-3-yn-1-yl)-1H-pyrazol-4-yl)imidazo[1,2-c]pyrimidine], the negative-log IC50 (pIC50) against JAK2 was less than 6.00; at Human Tyk2 kinase domain, 6.00 to 7.00; at JAK1 it was less than 6.00; at JAK3, less than 6.00.

For orientation: pIC50 means the negative decadic logarithm of the IC50, by convention in mol/L.
